The numbers were not newly measured in patent publication US8968710B1, “Topical anesthetic” (priority 2005, dated 2015), which cites them from elsewhere.

On to `CCCCNc1ccc(C(=O)OCCN(C)C)cc1` [Tetracaine], for which the “solubility in alcohol, ether, benzene and chloroform” value (alcohol, ether, benzene, chloroform) was “soluble”. Also, under “water”, the solubility in water result is “very slightly soluble”.
